# In patent publication US12029727B2, “Combinations and methods for the treatment of neuropathic pain” (priority 2016, dated 2024):
# What was measured:
# [1] = system: neuropathic pain model induced by L5/L6 spinal nerve ligation (tactile allodynia); details: rat, in vivo, po
# Experimental: Antineuropathic effect of a combination of pregabalin and alpha lipoic acid through the neuropathic pain model induced by L5/L6 spinal nerve ligation in rat was determined.
# Wistar female rats with a body weight of 120-140 g were used for all experiments. Animals were kept under temperature controlled conditions (22° C.) and water and food were given ad-libitum in experimentation rooms.
# Both pregabalin and alpha lipoic acid were suspended in a 0.5% carboxymethylcellulose isotonic saline solution. Individual drugs or in combination were prepared and administered just before starting the experiment.
# Rats were prepared according to the method described by Kim S H, Chung J M. 1992. […]
# Tactile allodynia was determined according to the previously described method by Chaplan S R, Bach F W, Pogrel J W, Chung J M, Yaksh T L. 1994. […] Paw withdrawal mechanical threshold was measured immediately after and a systemic administration of drugs was carried out. Later, paw withdrawal mechanical threshold was measured at 0.5, 1, 2, 3, 4, 5, 6, 7 and 8 hours. […]
# Graphs of 50% withdrawal threshold in grams (g) in function of time (minutes) were prepared from data obtained. Area under curve was determined from these graphs through trapezoidal method and % of maximum possible effect (% MEP) was calculated using the following formula: % MEP=(Drug AUC−Neuropathic AUC)/(Sham AUC−Neuropathic AUC)×100 […]
# [2] = Safety/tolerability observations in treated rats; details: 30 mg/Kg dose
# Experimental: Wistar female rats with a body weight of 120-140 g were used for all experiments. Animals were kept under temperature controlled conditions (22° C.) and water and food were given ad-libitum in experimentation rooms. Experiments were carried out according to the guidelines on ethical issues on experimental pain research in animals (Zimmermann M. 1983. Ethical guidelines for investigations of experimental pain in conscious animals. Pain. 16:109-110).
SMILES,ED50 [1] [mg/kg],adverse signs observed [2]
O=C(O)CCCCC1CCSS1 (stereo not drawn) [alpha lipoic acid],57.5 ± 5.59,–
CC(C)C[C@H](CN)CC(=O)O [pregabalin],2.45 ± 0.23,sedation and motor discoordination
